The record followed here is patent US20040176474A1 (priority 2003, published 2004).

Data set [1] in a line: UN Test Series 3 overall conclusion. The format is physicochemical. As to conditions: sensitivity for transportation. From the text: UN Test Series 3: Drop Impact
Conclusion of UN Tests Series 3 Results:

A short description of data set [2]: Adiabatic compression test. The data set is classed as physicochemical. Here is the method: Adiabatic Compression Test
This test determines the initiation sensitivity of the material to sudden gas compression, such as liquid inertia compressing entrained gas bubbles during transportation or hydrostatic pressure heads which form when pumping liquid or opening and closing valves. The test is performed with a plunger to rapidly compress gas from a drop height of at least 100 cm within a cylindrical chamber containing the sample. Energy is delivered to the plunger with a drop weight. A failed test is one in which any smoke, discoloration, char, spark or audible report result from the test. Neat propargyl bromide and the single solvent formulation pass the test at drop height of 150 cm in nitrogen and fail the test in air at drop heights of 100 cm and 150 cm.

Take `C#CCBr` [neat propargyl bromide, 3-bromopropyne]: the “UN Test Series 3 conclusion” value in data set [1] is recorded as “too sensitive to mechanical impact to allow transportation”. The “Adiabatic compression test result (pass/fail)” value in data set [2] (drop height of 150 cm in nitrogen) is listed as “pass”; in data set [2] (in air at drop heights of 100 cm and 150 cm), “fail”.
